Experiments:
Format in all cases: in vivo, human
[1] = tested on: adult subjects with relapsing MS; assay: FSIQ-RMS weekly symptoms score, change from baseline to Week 108 (fatigue); details: for FSIQ-RMS change: Improved (<−6.3), patients / FSIQ-RMS change: Stable (−6.3 < x < +6.3), patients / FSIQ-RMS change: Stable or Improved, patients / FSIQ-RMS change: Worsened (≥6.3), patients / FSIQ-RMS-S total score change: Improved (<−6.3), patients / FSIQ-RMS-S total score change: Stable (−6.3 < x < +6.3), patients / FSIQ-RMS-S total score change: Stable or Improved, patients / FSIQ-RMS-S total score change: Worsened (≥6.3), patients: Week 108; for Mean change from baseline to Week 108 in FSIQ-RMS weekly symptoms score (MMRM): ponesimod 20 mg, teriflunomide 14 mg, full analysis set, increase = worsening
Description: In some embodiments, the patient-reported outcome questionnaire is the symptom domain of the FSIQ-RMS. The FSIQ-RMS symptom domain (FSIQ-RMS-S) consists of seven items assessing fatigue-related symptoms with a recall period of 24 hours measured on an 11-point numeric rating scale; the standardized symptom domain score ranges from 0 to 100 with a higher score indicating greater fatigue. This domain (i.e., section 1 of the questionnaire) is completed on 7 consecutive days.
As used herein, the term “patient level” refers to individual or within patient level of change. As used herein, “clinically meaningful” refers to the practical importance of a treatment effect and whether it has a real genuine, palpable, noticeable effect on symptoms and/or daily life. When interpreting data from a Patient Reported Outcome (PRO), for example, it is helpful to define a level of change on the PRO score over a predetermined time period that should be interpreted as a treatment benefit. Various terms are used for this level of change, including meaningful change threshold (MCT). This threshold can be used to conduct a responder analysis where an individual patient is a responder if the level of change on the PRO score for that patient exceeds the MCT. The proportion of responders between treatment groups can be compared to evaluate treatment effect. For example, in certain embodiments disclosed herein, there is an analysis of the percentage of responders in the ponesimod and teriflunomide treatment groups using an MCT of −6.3 on the FSIQ-RMS weekly symptom score. The percentage of subjects in the stable or improved category is also calculated. […] Accordingly, evaluation of within patient changes using MCT and associated responder analyses are used to provide additional interpretation to a p-value derived from a statistical test
For the MS symptoms domain, the FSIQ-RMS asks about a patient's fatigue-related symptoms of relapsing MS over the past 24 hours while doing routine daily activities (e.g., housework, yard work, shopping, working, etc.) for Items 1-6 or while at rest (e.g., reading a book, watching TV, etc.) for Item 7. Patients are asked to select a response on a scale of 0 to 10 that best describes their experience and are asked to not skip any questions, with no answers being right or wrong. • Item 1—In the past 24 hours, while doing routine daily activities, how physically tired did you feel? See FIG. 31. • Item 2—In the past 24 hours, while doing routine daily activities, how mentally tired did you feel? See FIG. 32. • Item 3—In the past 24 hours, while doing routine daily activities, how physical weak did you feel? See FIG. 33. • Item 4—In the past 24 hours, how would you rate your energy while doing routine daily activities? See FIG. 34. • Item 5—In the past 24 hours, while doing routine daily activities, how worn out did you feel? See FIG. 35. • Item 6—In the past 24 hours, while doing routine daily activities, how sleepy did you feel? See FIG. 36. • Item 7—In the past 24 hours, how worn out did you feel while at rest? MS-Related Impacts—13 Items
Secondary efficacy variables and testing strategy: Four secondary efficacy endpoints were analyzed as per the statistical testing strategy outlined in FIG. 1. • Change from baseline to Week 108 in fatigue-related symptoms as measured by the symptoms domain of the FSIQ-RMS patient-reported outcome [Fatigue] • Cumulative number of combined unique active lesions from baseline to Week 108 on brain MRI [CUALs] • Time to first 12-week confirmed disability accumulation (CDA) from baseline to EOS on Expanded Disability Status Scale (EDSS) [12-week CDA] • Time to first 24-week CDA from baseline to EOS on EDSS [24-week CDA] […]

[2] = tested on: adult subjects with relapsing MS; assay: 12-lead ECG heart rate and first-dose effects on Day 1; details: for Mean heart rate change compared to pre-dose at 2-hours post dose / Subjects with asymptomatic post-dose HR≤40 bpm: Day 1; for Mean heart rate change compared to pre-dose at 2-hours post dose: 12-lead ECG, Safety Set; for Subjects with asymptomatic post-dose HR≤40 bpm: all with pre-treatment HR <55 bpm
Description: As per up-titration regimen, the dose of ponesimod on Day 1 is 2 mg.

[3] = tested on: Patients (18-55 years) with RMS; assay: Prespecified MRI-based endpoints and NEDA-3 status
Description: Patients (18-55 years) with RMS (expanded disability status scale scores: 0-5.5) were randomized (1:1) to receive ponesimod (PON) 20 mg or teriflunomide (TER) 14 mg for 108 weeks. MRI assessments were: volume of T2 lesions; mean number of new gadolinium-enhancing (Gd+) T1 lesions and new/enlarging T2 lesions; and absence of active MRI lesions at week 108. NEDA-3 status (absence of confirmed relapse, Gd+T1 lesions and new/enlarging T2 lesions on annual MRIs, and 12-week confirmed disability accumulation) was evaluated from baseline to week 108.

[4] = Baseline EDSS <3.5 (title: ≤3.5)
[5] = baseline fatigue below the median
[6] = no prior DMT treatment within about two years
[7] = no prior DMT treatment within about two years, listed as ponesimod

## CCC/N=C1\S/C(=C\c2ccc(OC[C@H](O)CO)c(Cl)c2)C(=O)N1c1ccccc1C [Ponesimod, (R)-5-[3-chloro-4-(2,3-dihydroxy-propoxy)-benz[Z]ylidene]-2-([Z]-propylimino)-3-o-tolyl-thiazolidin-4-one]
[1]; EDSS≤3 subgroup
  MS-fatigue (FSIQ-RMS) mean difference, change from baseline to week 108, ponesimod vs teriflunomide: −4.31
[1]; [4]
  FSIQ-RMS change: Improved (<−6.3), patients: 30.6%
  FSIQ-RMS change: Stable (−6.3 < x < +6.3), patients: 40.8%
  FSIQ-RMS change: Stable or Improved, patients: 71.4%
  FSIQ-RMS change: Worsened (≥6.3), patients: 28.6%
[1]; Full Analysis Set
  FSIQ-RMS-S total score change: Improved (<−6.3), patients: 30.5%
  FSIQ-RMS-S total score change: Stable (−6.3 < x < +6.3), patients: 38.4%
  FSIQ-RMS-S total score change: Stable or Improved, patients: 68.9%
  FSIQ-RMS-S total score change: Worsened (≥6.3), patients: 31.1%
[1]; [5]
  FSIQ-RMS change: Improved (<−6.3), patients: 19.1%
  FSIQ-RMS change: Stable (−6.3 < x < +6.3), patients: 45.2%
  FSIQ-RMS change: Stable or Improved, patients: 64.4%
  FSIQ-RMS change: Worsened (≥6.3), patients: 35.6%
[1]; baseline fatigue below the median, listed as ponesimod
  FSIQ-RMS change: Stable or Improved, patients: ~65%
[1]; no Gd+ T1 lesions at baseline
  FSIQ-RMS change: Improved (<−6.3), patients: 30.0%
  FSIQ-RMS change: Stable (−6.3 < x < +6.3), patients: 37.4%
  FSIQ-RMS change: Stable or Improved, patients: 67.5%
  FSIQ-RMS change: Worsened (≥6.3), patients: 32.5%
[1]; no Gd+ T1 lesions at baseline, listed as ponesimod
  FSIQ-RMS change: Stable or Improved, patients: about 68%
[1]; [6]
  FSIQ-RMS change: Improved (<−6.3), patients: 31.4%
  FSIQ-RMS change: Stable (−6.3 < x < +6.3), patients: 44.0%
  FSIQ-RMS change: Stable or Improved, patients: 75.4%
  FSIQ-RMS change: Worsened (≥6.3), patients: 24.6%
[1]; [7]
  FSIQ-RMS change: Improved (<−6.3), patients: 31.4%
  FSIQ-RMS change: Stable or Improved, patients: about 75%
[1]; ponesimod 20 mg vs teriflunomide 14 mg, Full Analysis Set
  Mean difference in FSIQ-RMS change from baseline to Week 108, ponesimod vs teriflunomide: −3.57
[1]
  Mean change from baseline to Week 108 in FSIQ-RMS weekly symptoms score (MMRM): −0.01
[2]; Day 1, first dose
  2nd or higher degree AV block: No 2nd or higher degree AV block was observed
  Subjects meeting discharge criteria at 4 hours post-dose: ca. 99%
[2]; Day 1, ponesimod 2 mg
  ECG HR effect: time of nadir post-dose: 2 h
[2]
  Mean heart rate change compared to pre-dose at 2-hours post dose: −8.7 bpm
  Subjects with asymptomatic post-dose HR≤40 bpm: 3
[3]; At week 108
  Odds ratio for achieving NEDA-3, PON vs TER: 1.70
  Patients who achieved NEDA-3: 28.2%
[3]; baseline to week 108
  Mean number of new Gd+T1 lesions per scan: 0.18
  Mean numbers of new/enlarging T2 lesions per year: 1.40
  Rate ratio, new Gd+T1 lesions per scan, PON vs TER: 0.42
  Rate ratio, new/enlarging T2 lesions per year, PON vs TER: 0.44
[3]; baseline to week 108, PON 20 mg vs TER 14 mg
  Least square (LS) mean difference (PON-TER) in change from baseline in total volume of T2 lesions: −399.2 mm^3
[3]; week 108
  PON vs TER odds ratio for absence of new Gd+T1 lesions: 2.18
  PON vs TER odds ratio for absence of new/enlarging 12 lesions: 1.71

## C/C(O)=C(\C#N)C(=O)Nc1ccc(C(F)(F)F)cc1 [Teriflunomide, reference compound]
[1]; [4]
  FSIQ-RMS change: Improved (<−6.3), patients: 27.9%
  FSIQ-RMS change: Stable (−6.3 < x < +6.3), patients: 34.2%
  FSIQ-RMS change: Stable or Improved, patients: 62.1%
  FSIQ-RMS change: Worsened (≥6.3), patients: 37.9%
[1]; Full Analysis Set
  FSIQ-RMS-S total score change: Improved (<−6.3), patients: 29.9%
  FSIQ-RMS-S total score change: Stable (−6.3 < x < +6.3), patients: 32.6%
  FSIQ-RMS-S total score change: Stable or Improved, patients: 62.5%
  FSIQ-RMS-S total score change: Worsened (≥6.3), patients: 37.5%
[1]; [5]
  FSIQ-RMS change: Improved (<−6.3), patients: 20.9%
  FSIQ-RMS change: Stable (−6.3 < x < +6.3), patients: 33.7%
  FSIQ-RMS change: Stable or Improved, patients: 54.6%
  FSIQ-RMS change: Worsened (≥6.3), patients: 45.4%
[1]; baseline fatigue below the median, listed as teriflunomide
  FSIQ-RMS change: Stable or Improved, patients: about 55%
[1]; no Gd+ T1 lesions at baseline
  FSIQ-RMS change: Improved (<−6.3), patients: 25.8%
  FSIQ-RMS change: Stable (−6.3 < x < +6.3), patients: 31.2%
  FSIQ-RMS change: Stable or Improved, patients: 57.0%
  FSIQ-RMS change: Worsened (≥6.3), patients: 43.0%
[1]; no Gd+ T1 lesions at baseline, listed as teriflunomide
  FSIQ-RMS change: Stable or Improved, patients: about 57%
[1]; [6]
  FSIQ-RMS change: Improved (<−6.3), patients: 26.2%
  FSIQ-RMS change: Stable (−6.3 < x < +6.3), patients: 36.9%
  FSIQ-RMS change: Stable or Improved, patients: 63.1%
  FSIQ-RMS change: Worsened (≥6.3), patients: 36.9%
[1]
  Mean change from baseline to Week 108 in FSIQ-RMS weekly symptoms score (MMRM): 3.56
[2]
  Mean heart rate change compared to pre-dose at 2-hours post dose: −1.7 bpm
  Subjects with asymptomatic post-dose HR≤40 bpm: none
[3]; At week 108
  Patients who achieved NEDA-3: 18.3%
[3]; baseline to week 108
  Mean number of new Gd+T1 lesions per scan: 0.43
  Mean numbers of new/enlarging T2 lesions per year: 3.16

Reference: patent US12728116B2, “Methods of treating multiple sclerosis” (Vanda Pharmaceuticals Inc., priority 2021, dated 2026)
